According to patent US9949968B2, “Diarylalkylamine REV-ERB antagonists and their use as medicaments” (FONDAZIONE ISTITUTO ITALIANO DI TECNOLOGIA, priority 2013, dated 2018):
Structures can show the parent of a compound that is named as a salt.

Assays:
[1] = tested on: HepG2; assay: Growth inhibition of different tumor cell lines: HepG2; format: cell-based; settings: Homo sapiens; HepG2, liver hepatocellular carcinoma, p53 Wild-Type
Description: (§1) The CyQUANT® Cell Proliferation Assay Kit (Invitrogen) was used, an assay that has a linear detection range extending from 50 or fewer to at least 250,000 cells.
(§2) Frozen cells are simply thawed and lysed by addition of a buffer containing the CyQUANT®.
(§3) Data were collected and analyzed with Prism 5 software to calculate the growth inhibition curve.
(§4) In particular, values obtained from the DMSO treated cells was set at 100% of growth. Data from treatment of cells with serial dilutions of the compounds were normalized versus the DMSO group and fitted using a four-parameter dose-response curve.
(§5) GI50 was calculated as the concentration of compound that gives a response half way between bottom and top plateaus of the fitted curve.
(§6) To test if the growth inhibition activity of the compound of example 1 was limited to breast cancer BT-474 cells, or if it could be generalized in other tumor cells from different tissues, the GI50 of compound of example 1 was tested in several cell lines.

[2] = tested on: tumorigenic breast cancer cells BT-474; assay: Growth inhibition assay (CyQUANT Cell Proliferation Assay) in BT-474 cells; format: cell-based; settings: Homo sapiens; for GI50: 48 h, CyQUANT, read-out: Cell Growth Inibition GI50; for Emax: reduction of cells after 48 h at saturating dose, read-out: Cell Growth Inibition GImax
Description: Given that REV-ERB target genes include several metabolic regulators, such as Pgc-1α and Nampt, it was decided to test the cell proliferation with a method that is independent from the metabolic state of the cell.
as §1, §2
For the assay, tumorigenic breast cancer cells BT-474 cells were seeded at 2500 cells per well in a 96-well plate and incubated over-night at 37° C. Then, fresh medium containing different concentration of the compounds or vehicle (DMSO) was added and cells were growth 48 h at 37° C. Finally, cells were frozen at […] and then processed according to the manufacture instructions. A minimum of triplicate data for each dose was used for the analysis.
as §3, §4, §5
The bottom plateaus of the fitted curve was used to calculate the Growth Inhibition max (GImax), defined as the percentage of the reduction of cells after 48 h upon a saturating dose of compound.
(§7) The different compounds were tested for their ability to inhibit the growth of the tumorigenic breast cancer cells BT-474 and for their antagonistic activity toward REV-ERB transcriptional repression, as described in the biological method section.
For the cell growth inhibition (GI) the growth inhibition 50 (GI50) and the growth inhibition max (GImax) are reported. […] The bottom plateaus of the curve was used to calculate the Growth Inhibition max (GImax), defined as the percentage of the reduction of cells after 48 h upon a saturating dose of the administered compound. Compounds with a GI50<100 μM were also tested for their antagonistic activity toward REV-ERB. For these compounds, the EC50 value is provided, calculated as the concentration of compound that gives a response half between the bottom (expression of the reporter in absence of compound) and the top (expression of the reporter at saturating doses of compound) plateaus of the fitted curves (see biological method section for a description of the reported assay). n.d.=not determined; n.t.=not tested.

[3] = tested on: WiDr; assay: Growth inhibition of different tumor cell lines: WiDr; format: cell-based; settings: Homo sapiens, colon adenocarcinoma, p53 mutant protein
Description: as §1, §2, §3, §4, §5, §6

[4] = tested on: HCT116; assay: Growth inhibition of different tumor cell lines: HCT116; format: cell-based; settings: Homo sapiens, HCT-116; HCT116, colorectal carcinoma, p53 Wild-Type
Description: as §1, §2, §3, §4, §5, §6

[5] = tested on: Colo-205; assay: Growth inhibition of different tumor cell lines: Colo-205; format: cell-based; settings: Homo sapiens; Colo-205, colon, metastatic site: ascites, p53 mutant protein
Description: as §1, §2, §3, §4, §5, §6

[6] = tested on: CaCO2; assay: Growth inhibition of different tumor cell lines: CaCO2; format: cell-based; settings: Homo sapiens, Caco-2; CaCO2, colorectal adenocarcinoma, p53 no protein expression
Description: as §1, §2, §3, §4, §5, §6

[7] = tested on: HuH7; assay: Growth inhibition of different tumor cell lines: HuH7; format: cell-based; settings: Homo sapiens, Huh-7; HuH7, liver hepatocellular carcinoma, p53 mutant protein
Description: as §1, §2, §3, §4, §5, §6

[8] = tested on: HCT116-E6; assay: Growth inhibition of different tumor cell lines: HCT116-E6; format: cell-based; settings: HCT116-E6, colorectal carcinoma, p53 no protein expression
Description: as §1, §2, §3, §4, §5, §6

[9] = tested on: SK-Hep1; assay: Growth inhibition of different tumor cell lines: SK-Hep1; format: cell-based; settings: Homo sapiens; SK-Hep1, liver adenocarcinoma, p53 Wild-Type
Description: as §1, §2, §3, §4, §5, §6

[10] = tested on: REV-ERB; assay: Luciferase-based assay of REV-ERB mediated transcriptional regulation (RevRE/SV40-CLuc reporter in HEK-293 cells); format: cell-based; settings: HEK-293 cells transfected with RevRE reporter and REV-ERBα and/or β; read 24 h post-transfection; read-out: REV-ERB antagonism EC50
Description: Luciferase-Base Assay to Assess the Activity of the Compounds on REV-ERB Mediated Transcriptional Regulation
In order to assess the effect of the compounds of the invention on REV-ERB activity the inventors exploited the ability of REV-ERB to repress gene transcription of a specific DNA cis-element. In fact, the DNA binding domain (DBD) of REV-ERB recognizes specific DNA sequences (called RevREs=Rev-erb Responsive Elements) which contains an AGGTCA motif linked in 5′ to an A/T rich sequence harboring the following consensus: A/T A A/T N T (Harding et al., Mol Cell Biol., 1993; 13:3113).
Therefore, two repetitions of the RevRE consensus AGAATGTAGGTCA (SEQ ID NO: 13) upstream a SV40 promoter driving the expression of a reporter gene were cloned. As reported, the luciferase enzyme from the ostracod Cypridina noctiluca was adopted. […] Cypridina luciferase (CLuc) is secreted from cells by virtue of its natural signal peptide and its luminescence can be measured from the supernatant of transfected cells. Therefore, cell lysis is not necessary. Secreted CLuc is a very stable protein. Because of this property, the activity measured from the supernatant reflects the amount of protein accumulated up to the time of sampling. Multiple samples can therefore be obtained from the same transfected cells, allowing an easy set-up of time-course experiments. In addition, the direct use of the supernatant makes the system easily prone to automation for High Throughput Screening.
In order to normalize the experiment for the transfection efficiency, it was used a plasmid containing a SV40 promoter driving the expression of a secreted form of human alkaline phosphatase (SEAP), which enzymatic activity in the supernatant can be measured with chemiluminescence substrates.
To be able to rule out false-positive, for example due to the interference of the compounds to be tested with the fluorescence and/or chemiluminescence reactions, it was used as control a mutated version of the RevRE (GAGCCCGTAGGTCA) (SEQ ID NO: 14) that is no longer able to bind REV-ERB DBD (Harding et al., Mol Cell Biol., 1993; 13:3113).
The person skilled in the art will appreciate that an agonist will improve the ability of REV-ERB to repress the transcription, reducing the luminescence signal, while an antagonist will produce the opposite effect.
For the assay, HEK-293 cells were transfected with the reporter vectors and a plasmid expressing the REV-ERBα and/or β protein. After 6 h from transfection, the medium was replaced with fresh medium containing different doses of the compounds or vehicle (DMSO). After 24 h post-transfection, the supernatant was analyzed for the secreted luciferase and AP activity according to the manufacture instruction. Data normalized as fold activation versus vehicle (DMSO) were fitted using a four-parameter dose-response curve to calculate the EC50 of the different compounds.
as §7
For the cell growth inhibition (GI) the growth inhibition 50 (GI50) and the growth inhibition max (GImax) are reported. […] The bottom plateaus of the curve was used to calculate the Growth Inhibition max (GImax), defined as the percentage of the reduction of cells after 48 h upon a saturating dose of the administered compound. Compounds with a GI50<100 μM were also tested for their antagonistic activity toward REV-ERB. […]

[11] = tested on: endogenous REV-ERB mediated transcription; assay: Gene expression analysis (qPCR) of endogenous REV-ERB target genes in BT-474 cells; format: cell-based; settings: 24 h, different doses, qPCR normalised to Gapdh
Method: Gene Expression Analysis of Endogenous REV-ERB Target Genes after Treatment with the Compound of Example 1
In order to test the effect of the compound of example 1 on the endogenous REV-ERB mediated transcription, BT-474 cells were treated 24 h with different doses of the compound of the example 1 and then processed for RNA extraction.
Total RNA was extracted with Trizol reagent (Invitrogen) according to the manufacture instruction. One microgram of RNA was retro-transcribed with VILO retrotranscription mix (Invitrogen) and subsequently analyzed by qPCR as described in Grimaldi et al., Cell Metab., 2010; 12:509-520.
The REV-ERB targets Per1, Bmal1, Nampt, and p21 were analyzed. Gapdh gene was used to normalize the data, while Hprt1 gene was used as independent REV-ERB gene (negative control).
The results obtained are illustrated in FIG. 1 Values are presented as Relative expression, calculated versus the normalizing gene Gapdh, and shown as mean±SEM from at least 3 independent experiments. The expression of the REV-ERBs independent gene, Hprt1, was used as negative control.

[12] = tested on: Hep3B; assay: Growth inhibition of different tumor cell lines: Hep3B; format: cell-based; settings: Homo sapiens, liver hepatocellular carcinoma, p53 no protein expression
Description: as §1, §2, §3, §4, §5, §6

[13] = molecular target: T1, LXRα (Homo sapiens, UniProt Q13133); settings: Trump et al., J. Med. Chem., 2013; cited from earlier work
T1 sequence (Q13133 1-447): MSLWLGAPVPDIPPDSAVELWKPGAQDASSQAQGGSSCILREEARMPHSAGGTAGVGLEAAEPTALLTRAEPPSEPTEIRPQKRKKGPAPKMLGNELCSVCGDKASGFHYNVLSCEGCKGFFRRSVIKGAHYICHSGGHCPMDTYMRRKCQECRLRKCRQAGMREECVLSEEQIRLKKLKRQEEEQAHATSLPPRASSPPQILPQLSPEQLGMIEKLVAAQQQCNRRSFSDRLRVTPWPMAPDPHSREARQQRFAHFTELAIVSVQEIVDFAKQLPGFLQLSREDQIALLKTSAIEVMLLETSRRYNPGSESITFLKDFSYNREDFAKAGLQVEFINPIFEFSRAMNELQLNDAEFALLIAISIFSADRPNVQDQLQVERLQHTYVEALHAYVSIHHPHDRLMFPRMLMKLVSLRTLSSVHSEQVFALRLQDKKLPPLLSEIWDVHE

[14] = molecular target: T2, REV-ERBα (Homo sapiens, UniProt P20393); settings: literature; cited from earlier work
T2 sequence (P20393 284-614 limits assumed): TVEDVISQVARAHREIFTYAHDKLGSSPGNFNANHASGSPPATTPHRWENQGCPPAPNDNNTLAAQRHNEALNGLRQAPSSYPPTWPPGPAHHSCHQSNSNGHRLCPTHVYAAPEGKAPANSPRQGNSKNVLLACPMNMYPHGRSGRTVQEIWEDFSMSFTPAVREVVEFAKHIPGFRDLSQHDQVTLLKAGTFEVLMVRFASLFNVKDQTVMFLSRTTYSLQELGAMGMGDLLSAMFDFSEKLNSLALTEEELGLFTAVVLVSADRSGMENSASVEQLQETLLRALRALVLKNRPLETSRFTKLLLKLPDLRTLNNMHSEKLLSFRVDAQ

[15] = cited from earlier work; for pharmacokinetic properties: literature; for metabolic clearance: in vivo, Solt et al., Nature, 2012

SMILES: CN1CCN(Cc2cc(CNC3(c4ccccc4F)CCCC3)ccc2O)CC1 [Example 1, 4-[[[1-(2-Fluorophenyl)cyclopentyl]amino]methyl]-2-[(4-methylpiperazin-1-yl)methyl]phenol trihydrochloride]
- GI50 [1]: 10 µM
- GI50 [2]: 18 µM
- Emax [2]: 72%
- GI50 [3]: 12 µM
- GI50 [4]: 19 µM
- GI50 [5]: 30 µM
- GI50 [6]: 18 µM
- GI50 [7]: 8 µM
- GI50 [8]: 20 µM
- GI50 [9]: 50 µM
- EC50 [10]: 25 µM
- expression of Bmal1 (REV-ERB target, circadian regulation) [11]: induced in a dose-dependent manner
- expression of Nampt (REV-ERB target, metabolism) [11]: induced in a dose-dependent manner
- expression of Per1 (REV-ERB target, circadian regulation) [11]: induced in a dose-dependent manner
- expression of p21 (REV-ERB target, cell cycle) [11]: induced in a dose-dependent manner
- expression of the REV-ERB independent gene Hprt1 (negative control) [11]: negligible effects
- GI50 [12]: 10 µM

SMILES: CN1CCC(Cc2cccc(CNC3(c4ccc(F)cc4)CCCC3)c2)CC1 [Example 32, 1-(4-Fluorophenyl)-N-[[3-[(1-methyl-4-piperidyl)methyl]phenyl]methyl]cyclopentanamine dihydrochloride]
- GI50 [2]: 1 µM
- Emax [2]: 97%
- EC50 [10]: 2 µM

SMILES: CN1CCN(Cc2cc(CNC3(c4ccccc4F)CCC3)ccc2O)CC1 [Example 33, 4-[[[1-(2-Fluorophenyl)cyclobutyl]amino]methyl]-2-[(4-methylpiperazin-1-yl)methyl]phenol trihydrochloride]
- GI50 [2]: 30 µM
- Emax [2]: 70%
- EC50 [10]: 38 µM

SMILES: CC(C)(C)OC(=O)CN(Cc1ccc(Cl)cc1)Cc1ccc([N+](=O)[O-])s1 [GSK4112]
- activity on LXRα [13]: agonizes
- effect on interaction of NCoR peptide with REV-ERBα (FRET) [14]: dose-dependently increase the interaction
- pharmacokinetic properties [15]: poor pharmacokinetic properties

SMILES: CCOC(=O)C1Cc2ccccc2CN1C(=O)c1ccc(SC)s1 (centres unmarked) [SR8278]
- effect on interaction of NCoR peptide with REV-ERBα (FRET) [14]: inhibit REV-ERBα LBD/NcoR interaction
- pharmacokinetic properties [15]: poor pharmacokinetic properties

SMILES: CCOC(=O)N1CCC(CN(Cc2ccc(Cl)cc2)Cc2ccc([N+](=O)[O-])s2)C1 (centres unmarked) [SR9009]
- times more active toward LXRα than REV-ERBs [13]: 100 times
- metabolic clearance [15]: high metabolic clearance rates

SMILES: CCCCCNC(=O)N1CCC(CN(Cc2ccc(Cl)cc2)Cc2ccc([N+](=O)[O-])s2)C1 (centres unmarked) [SR9011]
- times more active toward LXRα than REV-ERBs [13]: 100 times
- metabolic clearance [15]: high metabolic clearance rates
